Measurements taken from patent US8410170B2, “Use of isothiocyanates compounds in treating prostatic diseases and skin cancer” (Wuxi JC Pharmaceutical Technology Co., Ltd., priority 2005, dated 2013).

Experiments:
Sp1 = biological target: T1, Sp1 (Homo sapiens, UniProt P08047); assay: Mobility gel shift assay (EMSA) of Sp1-DNA binding; format: cell-based; conditions: AD cells exposed 24 hrs
T1 construct: endogenous in cells; host or cells: LNCaP AD cells, nuclear extract
Method: EMSA was performed according to modern technology. […] The extraction of nuclear proteins was performed as described previously (Wang, L. G., Liu, X. M., Kreis, W., and Budman, D. R. Down-regulation of prostate-specific antigen expression by finasteride through inhibition of complex formation between androgen receptor and steroid receptor-binding consensus in the promoter of the PSA gene in LNCaP cells. Cancer Res, 57: 714-719, 1997). Five μg of nuclear proteins was reacted for 30 minutes at room temperature with the [^32P]-labeled Sp1 oligonucleotide or their corresponding mutants oligonucleotide probe in binding buffer containing […] dIdC to increase the specificity of the reaction. The reaction mixtures were then subjected to electrophoresis in 8% native polyacrylamide gel(PAGE). The binding complexes were visualized by exposing the dried gel to X-ray film.

androgen-induced BPH = assay: Therapeutic effects on BPH: Test Two (castrated rats, testosterone propionate; weights and histopathology); format: in vivo, SD rats
Method: Thirty-six male SD rats were randomly divided into 4 groups, nine each. Group 1 was served as blank control group (pseudo-surgery control group) in which animals were under the same surgical procedures except no testis was sectioned and fed normally. Groups from 2 to 4 were served as treatment groups in which all animals were anesthetized using ketamine and castrated by removing both testises under sterile conditions. After the surgery, the penicillin was injected to prevent the animals from infection. One week later, the testosterone propionate was injected subcutaneously at dose of 5 mg/kg, once a day for a month. […] Group 3 was served as positive control group in which animals were given Proscar by gavage at dose of 0.1 mg/rat/day for a month beginning on the same day that the testosterone propionate was injected.
Twenty-four hrs after the last dose, the animals were euthanized and weighed. Volume and weight of prostate were measured. The averages of prostate volume/weight and organ coefficient (average weight of prostate/average of body weight) were calculated, and statistical analysis performed (t test).
Prostate tissues of animals from different groups were embedded with paraffin. The tissue sections were stained with H&E for histpathological examination by an anatomical pathologist.

[1] = test system: human prostate cancer cell line LNCaP; assay: MTT and SRB cell growth assay, LNCaP; format: cell-based
Method: MTT and SRB method as described in the reference (Kreis, Budman et al. 1997). Briefly, human prostate cancer cells grown exponentially were aliquoted into 96-well plates at a density of 5000 cells/200 μl per well. Twenty-four hrs after the incubation, the cells were exposed for three or seven days to serial dilutions of indicated isothiocyanate. After the incubation, 100 μl of the medium was removed from each of the wells and 50 μl solution of 3-(4,5-dimethyl-thiazol-2-yl)-2,5-diphenyltetrazolium bromide (MTT) was added, the cells were incubated for an additional 4 hrs and then 200 μl of 0.04 N HCl-isopropanol was added to each well to dissolve the black formazan precipitates. The absorbance was measured at wavelength 540 nm. For SRB method, remove the medium after 72 hrs. The cells on 96-well dishes were fixed with 10% trichloride acetic acid for 1 hr, air-dried for 24 hrs. The cells were then stained with 50 μl of SRB (sulforhodamine B) for […]. After extensive washes with 1% acetic acid for 5 times, air-dried, the purple protein-SRB complex was dissolved in 200 μl 10 mM Tris-HCl buffer (pH 10.0), and the absorbance was measured at the wavelength of 540 and 630 nm. The percent of cell survival (T/C%) were calculated based on the results of test groups to that of the control group. The semi-exponential curves of the percent of cell survival (T/C%) to the drug concentrations (FIG. 8) and IC50 were obtained by using Sigma-plot program.

[2] = Stability testing of isothiocyanate compositions (60° C., HPLC); format: physicochemical; conditions: sealed vials, day 10, HPLC
Method: Suitable amount of API (isothiocyanates, as control) and compositions were placed into clean vials, and sealed with rubber stoppers plus aluminum caps. All samples were stored at 60° C., and then assayed by a validated HPLC method at time day 0, day 5, and day 10.

T1 sequence (P08047 whole entry): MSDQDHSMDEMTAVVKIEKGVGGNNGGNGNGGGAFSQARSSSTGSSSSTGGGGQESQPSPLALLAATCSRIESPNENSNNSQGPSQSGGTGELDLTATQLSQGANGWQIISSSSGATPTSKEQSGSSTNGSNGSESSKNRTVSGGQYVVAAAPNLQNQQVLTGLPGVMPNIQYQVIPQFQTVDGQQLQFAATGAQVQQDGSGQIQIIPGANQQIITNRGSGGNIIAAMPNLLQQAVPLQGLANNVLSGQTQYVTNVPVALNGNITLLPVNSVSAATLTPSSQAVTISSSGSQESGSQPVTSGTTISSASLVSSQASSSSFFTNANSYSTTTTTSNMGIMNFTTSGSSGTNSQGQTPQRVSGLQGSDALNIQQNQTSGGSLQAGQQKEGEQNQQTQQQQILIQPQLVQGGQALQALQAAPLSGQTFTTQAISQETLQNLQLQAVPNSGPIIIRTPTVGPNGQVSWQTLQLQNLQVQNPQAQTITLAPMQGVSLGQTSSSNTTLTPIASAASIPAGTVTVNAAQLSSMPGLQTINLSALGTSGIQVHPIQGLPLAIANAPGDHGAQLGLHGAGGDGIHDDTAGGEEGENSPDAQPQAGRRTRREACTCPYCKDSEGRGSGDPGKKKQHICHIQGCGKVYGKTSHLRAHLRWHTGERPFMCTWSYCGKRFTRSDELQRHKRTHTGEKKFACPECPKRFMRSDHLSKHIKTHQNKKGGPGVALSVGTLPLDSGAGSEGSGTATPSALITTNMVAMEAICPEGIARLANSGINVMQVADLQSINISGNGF

S=C=NCCc1ccccc1 [PEITC, phenethyl isothiocyanate]
binding activity to Sp1 specific oligonucleotide of nuclear proteins (EMSA) (Sp1): significantly reduced | Average Body Weight (androgen-induced BPH; PEITC 2 mg/kg oral (Example 13-11), one month): 337 ± 23.7 g | Average Volume of Prostate (androgen-induced BPH; PEITC 2 mg/kg oral, one month): 1.42 ± 0.16 cm^3 | Average Weight of Prostate (androgen-induced BPH; PEITC 2 mg/kg oral, one month): 1.20 ± 0.16 g | Inhibition of Organ Coefficient (androgen-induced BPH; PEITC 2 mg/kg oral, one month): 16.28% | Organ Coefficient (androgen-induced BPH; PEITC 2 mg/kg oral, one month): 0.36 ± 0.06% | Acinar Density: no. of animals with score 0 (androgen-induced BPH; PEITC 2 mg/kg, 9 animals): 7 | Acinar Density: no. of animals with score + (androgen-induced BPH; PEITC 2 mg/kg, 9 animals): 2 | Acinar Density: no. of animals with score ++ (androgen-induced BPH; PEITC 2 mg/kg, 9 animals): 0 | Acinar Density: no. of animals with score +++ (androgen-induced BPH; PEITC 2 mg/kg, 9 animals): 0 | Connective tissue proliferation, or papillary hyperplasia: no. of animals with score 0 (androgen-induced BPH; PEITC 2 mg/kg, 9 animals): 8 | Connective tissue proliferation, or papillary hyperplasia: no. of animals with score + (androgen-induced BPH; PEITC 2 mg/kg, 9 animals): 1 | Connective tissue proliferation, or papillary hyperplasia: no. of animals with score ++ (androgen-induced BPH; PEITC 2 mg/kg, 9 animals): 0 | Connective tissue proliferation, or papillary hyperplasia: no. of animals with score +++ (androgen-induced BPH; PEITC 2 mg/kg, 9 animals): 0 | Enlargement of Lumen of Gland: no. of animals with score 0 (androgen-induced BPH; PEITC 2 mg/kg, 9 animals): 3 | Enlargement of Lumen of Gland: no. of animals with score + (androgen-induced BPH; PEITC 2 mg/kg, 9 animals): 6 | Enlargement of Lumen of Gland: no. of animals with score ++ (androgen-induced BPH; PEITC 2 mg/kg, 9 animals): 0 | Enlargement of Lumen of Gland: no. of animals with score +++ (androgen-induced BPH; PEITC 2 mg/kg, 9 animals): 0 | Histopathological score of BPH, Average X ± SD (androgen-induced BPH; PEITC 2 mg/kg, 9 animals): 1.78 ± 1.09 | Secretions of Gland: no. of animals with score 0 (androgen-induced BPH; PEITC 2 mg/kg, 9 animals): 3 | Secretions of Gland: no. of animals with score + (androgen-induced BPH; PEITC 2 mg/kg, 9 animals): 5 | Secretions of Gland: no. of animals with score ++ (androgen-induced BPH; PEITC 2 mg/kg, 9 animals): 1 | Secretions of Gland: no. of animals with score +++ (androgen-induced BPH; PEITC 2 mg/kg, 9 animals): 0 | lumen, secretary materials in the lumen and density of prostatic acinars, versus untreated BPH tissues (slide) (androgen-induced BPH; PEITC 2 mg/kg, FIG. 6.5): reduced | Percent of Cell Survival (T/C %) ([1]; 0.0390 μM, LNCaP): 102.60% | Percent of Cell Survival (T/C %) ([1]; 0.0780 μM, LNCaP): 102.10% | Percent of Cell Survival (T/C %) ([1]; 0.1562 μM, LNCaP): 88.10% | Percent of Cell Survival (T/C %) ([1]; 0.3125 μM, LNCaP): 82.25% | Percent of Cell Survival (T/C %) ([1]; 0.6250 μM, LNCaP): 82.25% | Percent of Cell Survival (T/C %) ([1]; 1.2500 μM, LNCaP): 78.12% | Percent of Cell Survival (T/C %) ([1]; 2.5000 μM, LNCaP): 30.24% | Percent of Cell Survival (T/C %) ([1]; 5.0000 μM, LNCaP): 10.06% | Percent of Cell Survival (T/C %) ([1]; 10.0000 μM, LNCaP): 1.52% | Percent of Cell Survival (T/C %) ([1]; 20.0000 μM, LNCaP): 0.56% | IC50 ([1]; Homo sapiens, LNCaP, MTT and SRB, read-out: IC50, growth inhibition): 800 to 1500 nM | inhibitory effect on growth of human prostate cancer cells stronger than B16 cells ([1]; LNCaP versus B16): 8-10 times | API % under 60° C. for 10 days [2]: 95.2%
